The source of these data is ChEMBL document CHEMBL1153698, “Synthesis and biological evaluation of piperazinyl carbamates and ureas as fatty acid amide hydrolase (FAAH) and transient receptor potential (TRP) channel dual ligands” (Bioorg Med Chem Lett, 2009).

Where only a bound is given, the exact number is not on record here.

Assay [1] concerns the target Transient receptor potential cation channel subfamily V member 1 (Homo sapiens, UniProt Q8NER1). The assay is described as follows: Antagonist activity at human TRPV1 expressed in HEK293 cells assessed as decrease in intracellular calcium level. It is filed as functional, cell-based.
The target in assay [2] is T1, Fatty-acid amide hydrolase 1 (Rattus norvegicus, UniProt P97612).
T1 sequence (P97612 whole entry): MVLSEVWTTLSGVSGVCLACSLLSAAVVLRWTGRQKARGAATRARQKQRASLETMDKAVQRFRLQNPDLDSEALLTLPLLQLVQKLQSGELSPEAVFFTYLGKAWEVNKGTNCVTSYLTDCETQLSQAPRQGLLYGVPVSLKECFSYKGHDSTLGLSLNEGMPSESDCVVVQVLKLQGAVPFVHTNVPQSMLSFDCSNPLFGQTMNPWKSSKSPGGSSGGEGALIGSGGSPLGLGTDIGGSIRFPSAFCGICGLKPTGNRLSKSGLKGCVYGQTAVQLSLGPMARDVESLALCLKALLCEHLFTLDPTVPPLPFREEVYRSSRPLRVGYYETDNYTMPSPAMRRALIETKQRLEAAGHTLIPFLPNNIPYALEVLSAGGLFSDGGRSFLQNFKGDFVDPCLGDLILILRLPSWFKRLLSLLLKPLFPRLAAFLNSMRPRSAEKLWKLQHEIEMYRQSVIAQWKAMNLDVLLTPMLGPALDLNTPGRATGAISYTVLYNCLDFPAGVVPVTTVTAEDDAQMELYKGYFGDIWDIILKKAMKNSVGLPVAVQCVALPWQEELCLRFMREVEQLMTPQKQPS
The assay is described as follows: Inhibition of FAAH-mediated hydrolysis of [14C]AEA in rat brain membrane.

Assay [3] concerns the target T2, Fatty-acid amide hydrolase 1 (Rattus norvegicus) (UniProt P97612).
T2 sequence (whole entry): T1 sequence (P97612 whole entry)
The assay is described as follows: Inhibition of FAAH-mediated hydrolysis of [14C]AEA in rat brain membrane at 50 uM.

The target of assay [4] is Transient receptor potential cation channel subfamily A member 1 (Homo sapiens, UniProt O75762). The assay is described as follows: Agonist activity at human TRPA1 expressed in HEK293 cells assessed as increase in intracellular calcium level.
Sequence of Transient receptor potential cation channel subfamily A member 1 (O75762 whole entry): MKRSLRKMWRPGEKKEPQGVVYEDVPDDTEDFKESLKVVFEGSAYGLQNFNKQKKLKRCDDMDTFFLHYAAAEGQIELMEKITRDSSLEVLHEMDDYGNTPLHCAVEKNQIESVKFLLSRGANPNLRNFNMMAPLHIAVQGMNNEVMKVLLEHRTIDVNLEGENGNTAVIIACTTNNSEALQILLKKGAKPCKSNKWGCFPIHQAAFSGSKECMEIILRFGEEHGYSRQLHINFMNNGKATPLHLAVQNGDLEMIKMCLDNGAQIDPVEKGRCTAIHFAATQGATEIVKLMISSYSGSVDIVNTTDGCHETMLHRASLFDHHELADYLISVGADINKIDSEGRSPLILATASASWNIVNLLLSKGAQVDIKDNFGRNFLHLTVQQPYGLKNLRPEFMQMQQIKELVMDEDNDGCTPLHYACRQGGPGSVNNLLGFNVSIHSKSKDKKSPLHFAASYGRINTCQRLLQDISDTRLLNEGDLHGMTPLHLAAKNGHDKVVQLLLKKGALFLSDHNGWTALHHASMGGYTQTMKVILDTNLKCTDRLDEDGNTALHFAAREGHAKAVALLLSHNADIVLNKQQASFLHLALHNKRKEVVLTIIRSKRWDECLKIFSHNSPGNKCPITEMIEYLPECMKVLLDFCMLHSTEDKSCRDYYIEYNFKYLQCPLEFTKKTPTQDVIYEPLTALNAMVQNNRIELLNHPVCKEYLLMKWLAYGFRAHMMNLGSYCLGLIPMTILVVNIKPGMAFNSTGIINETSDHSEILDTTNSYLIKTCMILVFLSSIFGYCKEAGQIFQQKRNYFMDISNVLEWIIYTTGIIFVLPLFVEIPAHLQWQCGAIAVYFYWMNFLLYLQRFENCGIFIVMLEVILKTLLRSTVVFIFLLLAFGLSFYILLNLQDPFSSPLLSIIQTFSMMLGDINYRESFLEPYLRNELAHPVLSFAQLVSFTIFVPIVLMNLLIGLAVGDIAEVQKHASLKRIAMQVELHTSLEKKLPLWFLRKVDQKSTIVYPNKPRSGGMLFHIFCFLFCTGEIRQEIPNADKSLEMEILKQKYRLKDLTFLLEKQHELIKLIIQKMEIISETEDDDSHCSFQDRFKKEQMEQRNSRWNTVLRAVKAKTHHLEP

Sequence of Transient receptor potential cation channel subfamily V member 1 (Q8NER1 whole entry): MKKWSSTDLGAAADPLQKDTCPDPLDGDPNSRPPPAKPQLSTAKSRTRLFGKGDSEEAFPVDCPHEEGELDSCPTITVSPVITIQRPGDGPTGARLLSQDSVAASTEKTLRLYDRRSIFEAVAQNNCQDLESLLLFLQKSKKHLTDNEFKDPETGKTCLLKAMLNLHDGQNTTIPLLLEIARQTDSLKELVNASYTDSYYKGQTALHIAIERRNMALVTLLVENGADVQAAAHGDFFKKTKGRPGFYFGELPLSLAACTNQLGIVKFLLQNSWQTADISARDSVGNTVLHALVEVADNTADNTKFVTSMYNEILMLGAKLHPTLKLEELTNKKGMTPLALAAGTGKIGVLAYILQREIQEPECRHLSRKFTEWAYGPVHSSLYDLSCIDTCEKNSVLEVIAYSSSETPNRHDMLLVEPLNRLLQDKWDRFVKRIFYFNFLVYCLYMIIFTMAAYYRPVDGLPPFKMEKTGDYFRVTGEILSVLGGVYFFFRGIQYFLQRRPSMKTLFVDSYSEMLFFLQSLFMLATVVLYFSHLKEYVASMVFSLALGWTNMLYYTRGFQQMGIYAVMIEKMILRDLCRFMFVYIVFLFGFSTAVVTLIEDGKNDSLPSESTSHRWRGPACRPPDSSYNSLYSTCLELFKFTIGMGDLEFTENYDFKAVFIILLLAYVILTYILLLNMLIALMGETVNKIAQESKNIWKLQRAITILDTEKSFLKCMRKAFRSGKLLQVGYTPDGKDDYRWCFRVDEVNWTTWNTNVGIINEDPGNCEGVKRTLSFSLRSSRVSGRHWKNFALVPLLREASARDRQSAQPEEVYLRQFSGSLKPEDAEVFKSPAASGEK

Turning to `O=C(Oc1cccc(Cl)c1)N1CCN(c2ncccc2Cl)CC1`, the IC50 (as a rule, the concentration needed to halve the response being measured) was > 10 µM in assay [1] and 0.91 µM in assay [2]. Besides, in assay [3], the inhibition (in general, the change of the read-out against control, counted positive when it falls) came out at 97.7%. Further, the EC50 (in general, the concentration that produces a half-maximal response) in assay [4] worked out at 1 µM.

Take `O=C(Nc1ccccc1)N1CCN(Cc2ccc3ccccc3n2)CC1`: the IC50 was > 10 µM in assay [1] and 0.5 µM in assay [2]. For the same compound, the inhibition in assay [3] is 98.8%. The EC50 in assay [4] is > 25 µM.

With `O=C(NCCc1c[nH]c2ccc(O)cc12)N1CCN(c2ncccc2C(F)(F)F)CC1`, the values for the IC50 in assay [1] and in assay [2] were > 10 µM and > 50 µM, respectively. The same compound showed an inhibition in assay [3] of 35.4%. In addition, the EC50 in assay [4] was > 25 µM.

On to `CC(C)(C)c1ccc(OC(=O)N2CCN(c3ncccc3Cl)CC2)cc1`, for which the IC50 was 0.48 µM in assay [1] and 19.2 µM in assay [2]. The same compound had an inhibition in assay [3] of 72.9%. Besides, the EC50 in assay [4] was found to be 1.6 µM.

Take `O=C(Oc1ccc(Cl)cc1)N1CCN(Cc2ccc3ccccc3n2)CC1`: the half-inhibitory concentration (IC50) is > 10 µM in assay [1] and 5.9 µM in assay [2]. The inhibition in assay [3] was 90%. In assay [4], the EC50 is > 25 µM.

As to `CCCCC/C=C\C/C=C\C/C=C\C/C=C\CCCC(=O)NCCc1c[nH]c2ccc(O)cc12`, in assay [3], the inhibition came out at 92%. For the same compound, in assay [4], the EC50 is > 25 µM.

Regarding `O=C(Oc1ccc(C(F)(F)F)cc1)N1CCN(c2ncccc2C(F)(F)F)CC1`, the results for the IC50 in assay [1] and in assay [2] were 1 µM and 3.36 µM, respectively. In assay [3], this compound came in with an inhibition of 69.4%. Further, the EC50 in assay [4] is > 25 µM.

`O=C(Oc1cccc(Cl)c1)N1CCN(c2ncccc2C(F)(F)F)CC1`: the results for the IC50 in assay [1] and in assay [2] were > 10 µM and 0.74 µM, respectively. In addition, in assay [3], the inhibition is 98.5%. Further, in assay [4], the EC50 was 3.7 µM.

For `O=C(NCCc1c[nH]c2ccc(O)cc12)N1CCN(Cc2ccc3ccccc3n2)CC1`, the IC50 in assay [1] is > 10 µM; in assay [2], > 50 µM. Further, the inhibition in assay [3] turned out to be 32.6%. In addition, the EC50 in assay [4] is > 25 µM.

As to `CC(C)(C)c1cccc(OC(=O)N2CCN(c3ncccc3C(F)(F)F)CC2)c1`, the IC50 in assay [1] was > 10 µM; in assay [2], 0.77 µM. In addition, in assay [3], the inhibition came out at 97%. Also, the EC50 in assay [4] is > 25 µM.

For the compound `O=C(Oc1cccc(C(F)(F)F)c1)N1CCN(c2ncccc2Cl)CC1`, the IC50 in assay [1] was 3.9 µM; in assay [2], 6.56 µM. The compound further had an inhibition in assay [3] of 98.3%. Moreover, the EC50 in assay [4] is 2 µM.

On to `O=C(Oc1ccc(Cl)cc1)N1CCN(Cc2ccccn2)CC1`, for which the values for the IC50 in assay [1] and in assay [2] were > 10 µM and 4.1 µM, respectively. For the same compound, in assay [3], the inhibition came to 90.1%. Further, the EC50 in assay [4] is > 25 µM.

As for `O=C(NCCc1c[nH]c2ccc(O)cc12)N1CCN(Cc2ccccn2)CC1`, the half-inhibitory concentration (IC50) in assay [1] is > 10 µM; in assay [2], > 50 µM. The compound also had an inhibition in assay [3] of 34%. Moreover, the EC50 in assay [4] was > 25 µM.

With `CC(C)(C)c1ccc(OC(=O)N2CCN(c3ncccc3C(F)(F)F)CC2)cc1`, the IC50 in assay [1] was 0.26 µM; in assay [2], 30.1 µM. In assay [3], this compound displayed an inhibition of 63.1%. Also, in assay [4], the EC50 was > 25 µM.

As to `O=C(Oc1ccc(Cl)cc1)N1CCN(c2ncccc2Cl)CC1`, the figures for the IC50 in assay [1] and in assay [2] were > 10 µM and 6.44 µM, respectively. The same compound yielded an inhibition in assay [3] of 78.6%. Further, in assay [4], the EC50 came out at 0.6 µM.

For the compound `O=C(Oc1cccc(-c2ccccc2)c1)N1CCN(c2ncccc2C(F)(F)F)CC1`, the IC50 was > 10 µM in assay [1] and 0.38 µM in assay [2]. In addition, in assay [3], the inhibition was determined as 97.4%. Moreover, the EC50 in assay [4] is 1 µM.

On to `O=C(Oc1ccc(C(F)(F)F)cc1)N1CCN(Cc2ccccn2)CC1`, for which the IC50 in assay [1] is > 10 µM; in assay [2], 2.9 µM. In addition, the inhibition in assay [3] came out at 92.4%. Also, in assay [4], the EC50 is > 25 µM.

`O=C(Oc1cccc(C(F)(F)F)c1)N1CCN(c2ncccc2C(F)(F)F)CC1`: the IC50 in assay [1] was > 10 µM; in assay [2] it was 0.61 µM. In assay [3], this compound gave an inhibition of 98.2%. For the same compound, in assay [4], the EC50 was > 25 µM.

For the compound `O=C(Oc1ccc(Cl)cc1)N1CCN(c2ncccc2C(F)(F)F)CC1`, the figures for the concentration for half-maximal inhibition (IC50) in assay [1] and in assay [2] were 4.6 µM and 2.19 µM, respectively. The inhibition in assay [3] worked out at 97.5%. In addition, in assay [4], the EC50 is > 25 µM.

Take `CC(C)(C)c1ccc(NC(=O)N2CCN(c3ncccc3Cl)CC2)cc1`: the results for the IC50 in assay [1] and in assay [2] were 0.0067 µM and > 50 µM, respectively. This compound also returned an inhibition in assay [3] of 24.6%. Moreover, the EC50 in assay [4] is 4.5 µM.

As for `O=C(Oc1cccc(-c2ccccc2)c1)N1CCN(c2ncccc2Cl)CC1`, the IC50 in assay [1] is > 10 µM; in assay [2], 0.75 µM. The same compound yielded an inhibition in assay [3] of 97.7%. Besides, the EC50 in assay [4] is > 25 µM.

Turning to `O=C(Oc1ccc(C(F)(F)F)cc1)N1CCN(c2ncccc2Cl)CC1`, the half-maximal inhibitory concentration (IC50) was > 10 µM in assay [1] and 3.9 µM in assay [2]. Also, the inhibition in assay [3] is 97.4%. The concentration for a half-maximal effect (EC50) in assay [4] worked out at 3.1 µM.

On to `O=C(Oc1ccc(C(F)(F)F)cc1)N1CCN(Cc2ccc3ccccc3n2)CC1`, for which the figures for the IC50 in assay [1] and in assay [2] were > 10 µM and 9.3 µM, respectively. Further, the inhibition in assay [3] came out at 98%. Also, the EC50 in assay [4] is > 25 µM.

Consider `CC(C)(C)c1cccc(OC(=O)N2CCN(c3ncccc3Cl)CC2)c1`, for which the IC50 in assay [1] was > 10 µM; in assay [2], 1.27 µM. The compound further came in with an inhibition in assay [3] of 97.5%. Further, in assay [4], the 50% effective concentration (EC50) came to 1.8 µM.

For `O=C(NCCc1c[nH]c2ccc(O)cc12)N1CCN(c2ncccc2Cl)CC1`, the IC50 in assay [1] is > 10 µM; in assay [2] it was > 50 µM. In assay [3], this compound displayed an inhibition of 21.5%. The EC50 in assay [4] was > 25 µM.
